Starred links: 1 amine or outer side, 2 acyl side, 3 side chain; linkers in the order of their positions; H or OH if unused. Positions of bridges follow the written chain, without caps; N, C: chain ends. Non-standard residues stand in square brackets, D forms with d. Residues, ends and D or L forms follow the SMILES beside them. *: point of attachment. Phe(3-(CH2)7CO) = O=C([C@H](Cc1cccc(CCCCCCCC(=O)[*:3])c1)N[*:1])[*:2]; X1 = CCCC(N[*:1])C(=O)C(=O)[*:2]; Chg = N[C@H](C(=O)O)C1CCCCC1; Phg = N[C@H](C(=O)O)c1ccccc1; OtBu = CC(C)(C)O*
Each molecule was assayed against NS3 (Hepatitis C virus, UniProt A3EZJ3) (assay: Inhibitory constant against NS3 serine protease of hepatitis c virus).
NS3, sequence (A3EZJ3 whole entry): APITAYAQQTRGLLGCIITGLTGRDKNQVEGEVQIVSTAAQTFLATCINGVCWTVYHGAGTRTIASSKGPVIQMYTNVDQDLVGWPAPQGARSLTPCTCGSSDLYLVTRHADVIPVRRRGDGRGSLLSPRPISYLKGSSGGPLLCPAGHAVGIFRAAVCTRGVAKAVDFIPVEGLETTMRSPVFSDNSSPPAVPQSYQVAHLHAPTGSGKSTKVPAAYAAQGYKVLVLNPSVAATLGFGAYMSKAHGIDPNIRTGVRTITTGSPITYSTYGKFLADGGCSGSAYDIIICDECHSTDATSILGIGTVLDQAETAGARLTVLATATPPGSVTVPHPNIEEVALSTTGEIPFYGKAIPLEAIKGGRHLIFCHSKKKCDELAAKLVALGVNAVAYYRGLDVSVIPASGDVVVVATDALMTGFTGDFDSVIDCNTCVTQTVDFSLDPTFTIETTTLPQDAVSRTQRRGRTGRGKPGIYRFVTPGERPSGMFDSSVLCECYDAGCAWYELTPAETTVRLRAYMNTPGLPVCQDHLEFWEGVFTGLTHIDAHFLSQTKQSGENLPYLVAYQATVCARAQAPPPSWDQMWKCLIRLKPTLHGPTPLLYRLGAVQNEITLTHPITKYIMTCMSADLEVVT
Set-up: species or system Hepacivirus hominis

SMILES | Ki [µM]
CCCC(NC(=O)[C@@H]1Cc2cccc(c2)/C=C/CCCCCC(=O)N[C@@H](C2CCCCC2)C(=O)N1)C(=O)C(=O)NCC(=O)N[C@H](C(=O)O)c1ccccc1 (stereo not given in full) | 0.084
CCCC(NC(=O)[C@@H]1Cc2cccc(c2)/C=C/CCCCCC(=O)N[C@@H](C2CCCCC2)C(=O)N1)C(=O)C(=O)NCC(=O)N[C@H](C(=O)N(C)C)c1ccccc1 (stereo not given in full) | 0.12
CCCC(NC(=O)[C@@H]1Cc2cccc(c2)CCCCCCCC(=O)N[C@@H](C2CCCCC2)C(=O)N1)C(=O)C(=O)NCC(=O)N[C@H](C(=O)N(C)C)c1ccccc1 (stereo not given in full) ([Chg][Phe(3-(CH2)7CO)][X1]G[Phg]-NMe2; lactam N-2) | 0.11

More lines, in order of falling Ki, values ahead:

Ki [µM] | SMILES
2.3 | CCCC(NC(=O)[C@@H]1Cc2cccc(c2)CCCCCCCC(=O)N[C@@H](C2CCCCC2)C(=O)N1)C(=O)C(=O)NCC(=O)N[C@H](C(=O)OC(C)(C)C)c1ccccc1 (stereo not given in full) ([Chg][Phe(3-(CH2)7CO)][X1]G[Phg]-OtBu; lactam N-2)
1.2 | CCCC(NC(=O)[C@@H]1Cc2cccc(c2)/C=C/CCCCCC(=O)N[C@@H](C2CCCCC2)C(=O)N1)C(=O)C(=O)NCC(=O)N[C@H](C(=O)OC(C)(C)C)c1ccccc1 (stereo not given in full)

Reference: ChEMBL document CHEMBL1140389, “Synthesis and biological activity of macrocyclic inhibitors of hepatitis C virus (HCV) NS3 protease” (Bioorg Med Chem Lett, 2005)
